Assay results published in patent US4291036A, “Pyrido[1,2-A]pyrimidine derivatives and method of analgesic treatment” (priority 1977, dated 1981).
Where a name gives a salt, the structure may show the parent alone. Read-outs that look alike come from different tables or passages of the source.

What was measured:
[1] = Hot plate test (analgesia); format: in vivo, rats; details: for ED50: Rattus norvegicus
Protocol: (§1) The analgesic effect was tested on the hot-plate and algolytic tests.
Hot plate test: Woolfe and McDonald J. Pharm. 80, 300 (1944) modified by Porszasz and Herr: Kiserletes Orvostudomany 2, 292 (1950).

[2] = Toxicity (LD50; Litchfield and Wilcoxon); details: in vivo
Source text: Toxicity: Litchfield J. T. and Wilcoxon: J. Pharmacol. Sci 54 (1965) 888.

[3] = s.c.; Knoll et al. 1971; cited from earlier work
[4] = s.c.; Knoll et al. 1971; cited from earlier work; remark: listed apart in the source
[5] = dog, in vivo
Source text: Beagles are much more sensitive to CNS effects than rats, Rhesus monkeys and man.

[6] = Analgesic potency compared with Probon, rat; format: in vivo
[7] = rat, in vivo
[8] = Analgesic potency compared with Probon, dog; format: in vivo
[9] = Inhibition of the CNS effects of Probon; details: in vivo
[10] = Algolytic test (analgesia); format: in vivo; details: for Algolytic test ED100: p.o.
Protocol: as §1
Algolytic test: J. Knoll et. al: Animal and Clinical Pharmacological Techniques in Drug Evaluation Eds. Siegler, P. E. and Meyer J. II. Year Book Medical Pub. Chicago (1967) pages 305-321.

[11] = po, Table IV, rats, p.o., read-out: Hot plate test ED50 p.o.
[12] = po, Table IV, rats, p.o., read-out: LD50 rats p.o.
[13] = iv, Table IV, rats, i.v., read-out: Hot plate test ED50 i.v.
[14] = Table I, route not given, read-out: LD50
[15] = Table IV, rats, i.v., read-out: LD50 rats i.v.
[16] = sc, Table IV, rats, s.c., read-out: Hot plate test ED50 s.c.
[17] = sc, Table IV, rats, s.c., read-out: LD50 rats s.c.
[18] = iv, Table III, i.v., read-out: ED50 hot-plate i.v.
[19] = po, Table II, p.o., read-out: Hot plate test ED50
[20] = po, Table III, p.o., read-out: ED50 hot-plate p.o.
[21] = sc, Table III, s.c., read-out: ED50 hot-plate s.c.
[22] = iv, Table III, i.v., read-out: LD50 i.v.
[23] = po, Table III, p.o., read-out: LD50 p.o.
[24] = sc, Table III, s.c., read-out: LD50 s.c.

CCc1c(C)nc2ccc(Cl)cn2c1=O.Cl [2-methyl-3-ethyl-7-chloro-4-oxo-4H-pyrido[1,2-a]pyrimidine hydrochloride]
ED50 [1, 11]: 98 mg/kg
LD50 [2, 12]: 1100 mg/kg

CCc1c(C)nc2c(C)cccn2c1=O.Cl [2,9-dimethyl-3-ethyl-4-oxo-4H-pyrido[1,2-a]pyrimidine HCl]
ED50 [1, 11]: 310 mg/kg
LD50 [2, 12]: 820 mg/kg

CCOC(=O)c1c[n+](C)c2n(c1=O)C(C)CCC2 (stereo not shown) [Probon, 1,6-dimethyl-3-ethoxycarbonyl-4-oxo-4H-6,7,8,9-tetrahydro-pyrido[1,2-a]pyrimidinium-methosulfate, reference compound]
ED50 [1, 13]: 50 mg/kg
ED50 [1, 11]: 220 mg/kg
dose causing inhibition of the conditioned reflex [3]: ≥ 250 mg/kg
LD50 ([2]; iv, read-out: LD50 rats i.v.): 220 mg/kg
LD50 ([2]; po, read-out: LD50 rats p.o.): 1600 mg/kg
LD50 ([2]; read-out: LD50): 607 µmol/kg
dose eliciting characteristic desynchronization of the EEG [4]: ≥ 250 mg/kg
dose causing death of the animal ([5]; po): 300 mg/kg
oral dose at which disturbances of coordination and behavior, ataxia appear ([5]; po): above 100 mg./kg. body weight
oral dose level at which CNS symptoms are very marked ([5]; po): 150 to 200 mg/kg

Cc1nc2cccc(C)n2c(=O)c1C.Cl [2,3,6-trimethyl-4-oxo-4H-pyrido[1,2-a]pyrimidine hydrochloride]
ED50 [1, 11]: 87 mg/kg
LD50 [2, 14]: 780 µmol/kg
LD50 [2, 15]: 175 mg/kg

CCCc1c(C)nc2cccc(C)n2c1=O.Cl [2,6-dimethyl-3-n-propyl-4-oxo-4H-pyrido[1,2-a]pyrimidine hydrochloride]
ED50 [1, 16]: 48 mg/kg
LD50 [2, 12]: 1000 mg/kg
LD50 [2, 17]: 1200 mg/kg
LD50 [2, 14]: 316 µmol/kg

CCc1c(C)nc2cccc(C)n2c1=O [2,6-dimethyl-3-ethyl-4-oxo-4H-pyrido[1,2-a]pyrimidine]
analgesic potency compared with Probon [6]: more potent analgesic than Probon
CNS symptoms [7]: failing to elicit the CNS symptoms
analgesic potency compared with Probon [8]: more potent analgesic than Probon
CNS symptoms [5]: failing to elicit the CNS symptoms
inhibition of the CNS effects of Probon [9]: strongly inhibit the CNS effects of Probon

CCc1nc2cccc(C)n2c(=O)c1C.Cl [3,6-dimethyl-2-ethyl-4-oxo-4H-pyrido[1,2-a]pyrimidine hydrochloride]
LD50 [2, 14]: 120 µmol/kg

CCCc1c(C)nc2ccccn2c1=O.Cl [2-methyl-3-n-propyl-4-oxo-4H-pyrido[1,2-a]pyrimidine hydrochloride]
LD50 [2, 14]: 502 µmol/kg

CCCCc1c(C)nc2ccccn2c1=O [2-methyl-3-n-butyl-4-oxo-4H-pyrido[1,2-a]pyrimidine . HCl]
ED50 [1, 11]: 251 mg/kg
LD50 [2, 12]: 1100 mg/kg

CCc1c(C)nc2ccccn2c1=O [Compound B, 2-methyl-3-ethyl-4-oxo-4H-pyrido[1,2-a]pyrimidine.HCl]
Algolytic test ED100 ([10]; Table II): cannot be achieved
ED50 algolytic (+5mg./kg morphine) ([10]; Table III, i.v.): 2.75 mg/kg
ED50 [1, 18]: 100 mg/kg
ED50 [1, 13]: 100 mg/kg
ED50 [1, 19]: 330 mg/kg
ED50 [1, 20]: 300 mg/kg
ED50 [1, 11]: 300 mg/kg
ED50 [1, 21]: 180 mg/kg
ED50 [1, 16]: 180 mg/kg
LD50 [2, 22]: 280 mg/kg
LD50 [2, 23]: 1000 mg/kg
LD50 [2, 24]: 620 mg/kg
LD50 [2, 14]: 1070 µmol/kg

CCCCc1c(C)nc2cccc(C)n2c1=O.Cl [2,6-dimethyl-3-n-butyl-4-oxo-4H-pyrido[1,2-a]pyrimidine hydrochloride]
ED50 [1, 11]: 340 mg/kg
LD50 [2, 12]: 1100 mg/kg

CCc1c(C)nc2cc(C)cc(C)n2c1=O [Compound C, 2,6,8-trimethyl-3-ethyl-4-oxo-4H-pyrido[1,2-a]pyrimidine.HCl]
Algolytic test ED100 ([10]; Table II): cannot be achieved
ED50 [1, 18]: 49 mg/kg
ED50 [1, 13]: 49 mg/kg
ED50 [1, 19]: 580 mg/kg
ED50 [1, 20]: 580 mg/kg
ED50 [1, 11]: 580 mg/kg
ED50 [1, 21]: 120 mg/kg
ED50 [1, 16]: 120 mg/kg
LD50 [2, 22]: 120 mg/kg
LD50 [2, 23]: 1500 mg/kg
LD50 [2, 24]: 820 mg/kg

CCc1c(C)nc2cccc(C)n2c1=O.Cl [Compound A, 2,6-dimethyl-3-ethyl-4-oxo-4H-pyrido[1,2-a]pyrimidine hydrochloride]
algolytic (+5mg./kg morphine), result in words ([10]; Table III): effective per se
ED50 algolytic (+5mg./kg morphine) ([10]; Table III, s.c.): 8.6 mg/kg
ED100 ([10]; po, Table II): 420 mg/kg
ED50 ([10]; sc): 98 mg/kg
ED50 [1, 19]: 68 mg/kg
ED50 [1, 20]: 68 mg/kg
ED50 [1, 11]: 68 mg/kg
ED50 [1, 21]: 74 mg/kg
ED50 [1, 16]: 74 mg/kg
ED50 hot-plate p.o. ([1]; Table III, p.o., hydrochloride): 58 mg/kg
LD50 [2, 22]: 190 mg/kg
LD50 [2, 23]: 690 mg/kg
LD50 [2, 24]: 520 mg/kg
LD50 [2, 14]: 796 µmol/kg

CCc1c(C)nc2ccc(C)cn2c1=O [2,7-dimethyl-3-ethyl-4-oxo-4H-pyrido[1,2-a]pyrimidine . HCl]
ED50 [1, 13]: 75 mg/kg
ED50 [1, 11]: 500 mg/kg
ED50 [1, 16]: 150 mg/kg
LD50 [2, 12]: 900 mg/kg
LD50 [2, 17]: 800 mg/kg
LD50 [2, 15]: 175 mg/kg
